From patent publication US10851102B2, “Imidazole and triazole containing bicyclic compounds as JAK inhibitors” (THERAVANCE BIOPHARMA R&D IP, LLC, priority 2019, dated 2020)

How the values were obtained:
JAK3 = JAK3 (Homo sapiens (Human), UniProt P52333); experiment: Biochemical JAK and Tyk2 kinase assays (LanthaScreen): JAK3; conditions: for Ki / JAK 3 (pKi): 1 h pre-incubation, ATP at Km, pIC50 converted to pKi by Cheng-Prusoff; for Ki: read-out: JAK 3 (pKi) (converted); for JAK3 (pKi)-JAK1 (pKi): difference of pKi values, selectivity JAK3 over JAK1
Procedure, shortened: (§1)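 Compound, GST-tagged JAK enzyme and GFP-labelled STAT1 peptide were first incubated together for 1 h at ambient temperature. ATP then started a 1 h reaction, which was stopped with EDTA and Tb-labelled anti-pSTAT1 (pTyr701) antibody. After 1 h, the 520/495 nm emission ratio gave percent inhibition; Ki derived by Cheng-Prusoff.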

Caco-2 cell monolayers = experiment: Caco-2 permeation assay; assay type: in vitro ADME, human; conditions: for Caco Kp 10^−6 cm/sec: 5 μM, A to B, + Verapamil 25 μM, 120 minutes
Source text: Assay 5: Caco-2 Permeation Assay

[1] = tested on: IL-2 stimulated pSTAT5 in CD4+ T cells isolated from murine splenocytes (JAK3); experiment: Inhibition of IL-2 stimulated pSTAT5 in CD4+ T cells isolated from murine splenocytes; assay type: cell-based; conditions: Mus musculus, IL-2 7 ng/ml, read-out: pIC50, inhibition of IL-2 stimulated pSTAT5 (converted)
Description: Assay 3: Inhibition of IL-2 Stimulated pSTAT5 in CD4+ T Cells Isolated from Murine Splenocytes
The potency of test compounds for inhibition of interleukin-2 (IL-2) stimulated STATS phosphorylation was measured in the CD4+ T cells isolated from murine splenocytes using AlphaLisa. Because IL-2 signals through JAK3, this assay provides a measure of JAK3 cellular potency in mouse.
Phosphorylated STATS was measured via the AlphaLISA SureFire Ultra pSTAT5 (Tyr694/699) kit (PerkinElmer).
CD4+ T cells were isolated from murine splenocytes via negative selection on a magnetic column (Miltnyi Biotec) and re-suspended in assay media (phenol red-free DMEM (Life Technologies) supplemented with 10% FBS (ATCC)). Cells were seeded at 50,000 cells/well in assay media (2 μL/well). Compounds were serially diluted in DMSO and diluted to 2× final concentration in assay media. Compound was added (4 μl/well) and the cells incubated at 37° C., 5% CO2 for 1 hour, followed by the addition of IL-2 (R&D Systems; final concentration 7 ng/ml) in pre-warmed assay media (2 μL) for 30 minutes. After cytokine stimulation, cells were lysed with 2 μl of 5× AlphaLisa Lysis Buffer (PerkinElmer). The lysate was shaken at 900 rpm for 10 minutes at room temperature (RT). Phosphorylated STATS was measured via the pSTAT5 AlphaLisa kit (PerkinElmer). Freshly prepared acceptor bead mixture was dispensed onto lysate (5 ul) under green filtered <100 lux light. Plates were shaken at 900 rpm for 2 mins, briefly spun down, and incubated for 2 hrs at RT in the dark. Donor beads were dispensed (5 μl) under green filtered <100 lux light. Plates were shaken at 900 rpm for 2 mins, briefly spun down, and incubated overnight at RT in the dark. Luminescence was measured with excitation at 689 nm and emission at 570 nm using an EnVision plate reader (PerkinElmer) under green filtered <100 lux light.
To determine the inhibitory potency of test compounds in response to IL-2, the average emission intensity of beads bound to pSTATS was measured in primary CD4+ T cells isolated from murine splenocytes. IC50 values were determined from analysis of the inhibition curves of signal intensity vs compound concentration. Data are expressed as pIC50 (negative decadic logarithm IC50) values (mean±standard deviation).

[2] = tested on: IL-2 stimulated pSTAT5 in Tall-1 T cells (JAK3); experiment: Cellular JAK3 potency assay: inhibition of IL-2 stimulated pSTAT5 in Tall-1 T cells; assay type: cell-based; conditions: IL-2 300 ng/ml, pSTAT5 AlphaLisa, Tall-1 human T cell line; read-out: Tall-1 (pIC50) (converted)
Procedure, shortened: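 Human Tall-1 T cells (45,000/well) preincubated with compound 1 h at 37 °C, then stimulated with IL-2 (final 300 ng/ml) for 30 min. Lysates read for pSTAT5 (Tyr694/699) by AlphaLISA luminescence. IC50 from signal-versus-concentration curves, reported as pIC50 (mean±SD).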

JAK2 = JAK2 (Homo sapiens (Human), UniProt O60674); experiment: Biochemical JAK and Tyk2 kinase assays (LanthaScreen): JAK2; conditions: 1 h pre-incubation, ATP at Km; pIC50 converted to pKi by Cheng-Prusoff
Description: (§2) Assay 1: Biochemical JAK and Tyk2 Kinase Assays
(§3) A panel of four LanthaScreen JAK biochemical assays (JAK1, 2, 3 and Tyk2) were carried in a common kinase reaction buffer (50 mM HEPES, pH 7.5, 0.01% Brij-35, 10 mM MgCl2, and 1 mM EGTA). Recombinant GST-tagged JAK enzymes and a GFP-tagged STAT1 peptide substrate were obtained from Life Technologies.
(§4) Serially or discretely diluted compounds were pre-incubated with each of the four JAK enzymes and the substrate in white 384-well microplates (Corning) at ambient temperature for 1 h. ATP was subsequently added to initiate the kinase reactions in 10 μL total volume, with 1% DMSO. […] Kinase reactions were allowed to proceed for 1 hour at ambient temperature before a 10 μL preparation of EDTA (10 mM final concentration) and Tb-anti-pSTAT1 (pTyr701) antibody (Life Technologies, 2 nM final concentration) in TR-FRET dilution buffer (Life Technologies) was added. The plates were allowed to incubate at ambient temperature for 1 h before being read on the EnVision reader (Perkin Elmer). Emission ratio signals (520 nm/495 nm) were recorded and utilized to calculate the percent inhibition values based on DMSO and background controls.
(§5) For dose-response analysis, percent inhibition data were plotted vs. compound concentrations, and IC50 values were determined from a 4-parameter robust fit model with the Prism software (GraphPad Software). Results were expressed as pIC50 (negative logarithm of IC50) and subsequently converted to pKi (negative logarithm of dissociation constant, Ki) using the Cheng-Prusoff equation.

Tyk2 = Tyk2 (Homo sapiens (Human), UniProt P29597); experiment: Biochemical JAK and Tyk2 kinase assays (LanthaScreen): Tyk2; conditions: 1 h pre-incubation, ATP at Km; pIC50 converted to pKi by Cheng-Prusoff
Description: as §2, §3, §4, §5

JAK1 = JAK1 (Homo sapiens (Human), UniProt P23458); experiment: Biochemical JAK and Tyk2 kinase assays (LanthaScreen): JAK1; conditions: 1 h pre-incubation, ATP at Km; pIC50 converted to pKi by Cheng-Prusoff
Procedure, shortened: as §1

[3] = Colon and plasma mouse pharmacokinetics; assay type: in vivo; conditions: ratio of colon AUC to plasma AUC; male Balb/c mice, 10 mg/kg PO
Description: Assay 6: Colon and Plasma Mouse Pharmacokinetics
6 male Balb/c mice were administered 10 mg/kg of compound in 1% HPMC+0.1% Tween-80 by PO administration. At 0.5, 2 and 6 hours after dose administration, animals were anesthetized, and terminal blood samples were collected by cardiac puncture, followed by collection of colon contents and colon tissue.
Blood samples were collected into K2EDTA and stored on wet ice until processed to plasma by centrifugation (12,000 rpm at 4° C.). Plasma samples were transferred to cluster tubes and placed on dry ice prior to freezer storage. The colon contents from each animal were collected at each terminal blood collection time point. The colon tissues were flushed with saline and patted dry. The colon and colon content tissues were homogenized using sterile water containing 0.1% formic acid 9:1 (water:tissue, v/w). The homogenized tissues and colon contents were transferred to cluster tubes and placed on dry ice prior to freezer storage. All samples were analyzed using LC/MS/MS against analytical standards.
The composite pharmacokinetic parameters of the compounds were determined by non-compartmental analysis using Phoenix WinNonlin Version 6 (Certara, St. Louis, Mo.) and using mean values from 2 animals/time point. For plasma concentrations below the quantification limit (BQL), the lowest concentration measurable or the BLOQ (below limit of quantification) was used.
A colon to plasma ratio was determined as the ratio of the colon AUC to the plasma AUC.

Tyk2, sequence (P29597 whole entry): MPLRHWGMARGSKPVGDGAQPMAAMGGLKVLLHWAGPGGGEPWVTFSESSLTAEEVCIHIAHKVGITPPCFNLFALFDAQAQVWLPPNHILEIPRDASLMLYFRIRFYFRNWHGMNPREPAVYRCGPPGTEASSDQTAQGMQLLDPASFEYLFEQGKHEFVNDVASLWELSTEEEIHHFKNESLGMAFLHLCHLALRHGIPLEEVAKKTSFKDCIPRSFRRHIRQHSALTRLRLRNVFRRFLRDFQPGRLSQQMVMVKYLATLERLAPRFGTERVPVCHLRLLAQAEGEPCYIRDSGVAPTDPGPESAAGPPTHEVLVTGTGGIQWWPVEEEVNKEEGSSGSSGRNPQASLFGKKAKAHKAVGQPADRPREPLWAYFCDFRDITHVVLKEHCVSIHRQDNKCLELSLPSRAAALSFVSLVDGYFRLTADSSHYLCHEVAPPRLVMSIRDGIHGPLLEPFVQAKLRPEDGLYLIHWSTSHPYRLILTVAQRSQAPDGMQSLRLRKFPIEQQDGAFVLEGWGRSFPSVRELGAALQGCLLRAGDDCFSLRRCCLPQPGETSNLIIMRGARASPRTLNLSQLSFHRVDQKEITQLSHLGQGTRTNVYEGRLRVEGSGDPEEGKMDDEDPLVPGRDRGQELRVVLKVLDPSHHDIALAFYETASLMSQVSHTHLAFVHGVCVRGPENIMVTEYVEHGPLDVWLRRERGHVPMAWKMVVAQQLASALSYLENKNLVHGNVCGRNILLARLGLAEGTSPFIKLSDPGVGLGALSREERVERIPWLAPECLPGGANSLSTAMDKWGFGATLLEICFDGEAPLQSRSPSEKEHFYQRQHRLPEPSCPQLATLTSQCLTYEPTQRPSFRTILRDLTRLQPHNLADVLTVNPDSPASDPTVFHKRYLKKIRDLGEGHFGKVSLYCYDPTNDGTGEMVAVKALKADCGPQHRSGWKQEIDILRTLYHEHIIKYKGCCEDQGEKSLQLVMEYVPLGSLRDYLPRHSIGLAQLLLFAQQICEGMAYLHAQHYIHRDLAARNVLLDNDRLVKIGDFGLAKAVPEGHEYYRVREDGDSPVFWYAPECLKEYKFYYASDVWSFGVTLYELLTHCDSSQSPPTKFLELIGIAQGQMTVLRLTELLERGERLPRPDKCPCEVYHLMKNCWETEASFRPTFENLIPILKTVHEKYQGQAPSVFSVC
JAK2, sequence (O60674 whole entry): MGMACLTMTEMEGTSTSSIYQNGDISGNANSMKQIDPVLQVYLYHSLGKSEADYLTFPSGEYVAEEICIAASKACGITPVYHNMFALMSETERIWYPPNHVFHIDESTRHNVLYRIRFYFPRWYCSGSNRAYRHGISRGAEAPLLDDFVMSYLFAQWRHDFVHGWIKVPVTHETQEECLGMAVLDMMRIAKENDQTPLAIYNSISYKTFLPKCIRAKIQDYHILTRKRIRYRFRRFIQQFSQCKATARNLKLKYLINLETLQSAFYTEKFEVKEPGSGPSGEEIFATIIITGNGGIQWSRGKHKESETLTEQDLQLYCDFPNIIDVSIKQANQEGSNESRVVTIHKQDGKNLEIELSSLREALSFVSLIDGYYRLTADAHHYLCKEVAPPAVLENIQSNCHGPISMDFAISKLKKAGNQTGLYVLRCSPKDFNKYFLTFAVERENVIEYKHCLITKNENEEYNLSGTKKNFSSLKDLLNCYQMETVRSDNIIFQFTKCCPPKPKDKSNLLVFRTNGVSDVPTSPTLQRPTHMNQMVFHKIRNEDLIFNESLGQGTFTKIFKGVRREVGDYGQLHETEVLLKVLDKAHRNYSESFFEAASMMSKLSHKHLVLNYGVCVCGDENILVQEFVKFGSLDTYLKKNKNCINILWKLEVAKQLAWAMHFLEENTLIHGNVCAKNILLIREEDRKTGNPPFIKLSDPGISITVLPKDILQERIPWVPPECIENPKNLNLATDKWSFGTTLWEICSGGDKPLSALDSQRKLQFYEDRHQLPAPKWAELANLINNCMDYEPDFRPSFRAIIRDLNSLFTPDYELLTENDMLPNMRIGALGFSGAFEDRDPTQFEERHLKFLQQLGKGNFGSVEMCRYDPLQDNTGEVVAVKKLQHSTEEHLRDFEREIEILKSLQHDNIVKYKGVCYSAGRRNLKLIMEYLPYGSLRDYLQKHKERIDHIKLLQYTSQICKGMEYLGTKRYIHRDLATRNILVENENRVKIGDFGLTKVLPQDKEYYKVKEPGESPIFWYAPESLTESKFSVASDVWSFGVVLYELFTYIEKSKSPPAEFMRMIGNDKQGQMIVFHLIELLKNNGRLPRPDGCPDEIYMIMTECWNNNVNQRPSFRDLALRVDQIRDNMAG
JAK1, sequence (P23458 whole entry): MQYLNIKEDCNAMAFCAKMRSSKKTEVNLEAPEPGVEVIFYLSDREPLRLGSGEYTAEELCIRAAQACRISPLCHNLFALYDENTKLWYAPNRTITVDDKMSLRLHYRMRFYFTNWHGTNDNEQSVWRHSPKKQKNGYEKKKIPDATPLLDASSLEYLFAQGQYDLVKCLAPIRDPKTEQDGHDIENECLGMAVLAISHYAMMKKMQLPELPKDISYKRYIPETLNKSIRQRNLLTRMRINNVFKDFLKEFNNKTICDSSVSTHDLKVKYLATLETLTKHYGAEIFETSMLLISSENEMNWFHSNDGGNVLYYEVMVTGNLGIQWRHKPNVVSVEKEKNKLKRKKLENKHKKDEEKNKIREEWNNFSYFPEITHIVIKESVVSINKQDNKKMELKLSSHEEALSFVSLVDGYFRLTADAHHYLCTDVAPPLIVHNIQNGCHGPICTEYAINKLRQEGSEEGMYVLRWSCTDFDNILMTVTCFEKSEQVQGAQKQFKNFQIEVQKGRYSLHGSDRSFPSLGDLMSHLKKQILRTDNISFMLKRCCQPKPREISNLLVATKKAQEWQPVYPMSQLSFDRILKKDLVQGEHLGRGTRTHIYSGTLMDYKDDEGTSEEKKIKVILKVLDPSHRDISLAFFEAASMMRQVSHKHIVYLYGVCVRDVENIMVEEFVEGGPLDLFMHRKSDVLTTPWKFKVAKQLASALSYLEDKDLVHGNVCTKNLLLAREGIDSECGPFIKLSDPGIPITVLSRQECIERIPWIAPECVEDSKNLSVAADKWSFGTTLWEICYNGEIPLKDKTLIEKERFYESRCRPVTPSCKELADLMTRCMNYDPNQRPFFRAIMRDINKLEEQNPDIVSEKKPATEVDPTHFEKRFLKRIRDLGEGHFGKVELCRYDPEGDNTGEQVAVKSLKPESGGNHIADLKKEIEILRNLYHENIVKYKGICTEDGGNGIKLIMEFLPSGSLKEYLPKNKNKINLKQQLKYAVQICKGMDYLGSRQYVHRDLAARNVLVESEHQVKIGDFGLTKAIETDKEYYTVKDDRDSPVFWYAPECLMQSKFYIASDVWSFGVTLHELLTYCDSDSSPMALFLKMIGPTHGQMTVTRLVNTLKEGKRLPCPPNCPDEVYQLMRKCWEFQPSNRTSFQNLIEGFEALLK
JAK3, sequence (P52333 whole entry): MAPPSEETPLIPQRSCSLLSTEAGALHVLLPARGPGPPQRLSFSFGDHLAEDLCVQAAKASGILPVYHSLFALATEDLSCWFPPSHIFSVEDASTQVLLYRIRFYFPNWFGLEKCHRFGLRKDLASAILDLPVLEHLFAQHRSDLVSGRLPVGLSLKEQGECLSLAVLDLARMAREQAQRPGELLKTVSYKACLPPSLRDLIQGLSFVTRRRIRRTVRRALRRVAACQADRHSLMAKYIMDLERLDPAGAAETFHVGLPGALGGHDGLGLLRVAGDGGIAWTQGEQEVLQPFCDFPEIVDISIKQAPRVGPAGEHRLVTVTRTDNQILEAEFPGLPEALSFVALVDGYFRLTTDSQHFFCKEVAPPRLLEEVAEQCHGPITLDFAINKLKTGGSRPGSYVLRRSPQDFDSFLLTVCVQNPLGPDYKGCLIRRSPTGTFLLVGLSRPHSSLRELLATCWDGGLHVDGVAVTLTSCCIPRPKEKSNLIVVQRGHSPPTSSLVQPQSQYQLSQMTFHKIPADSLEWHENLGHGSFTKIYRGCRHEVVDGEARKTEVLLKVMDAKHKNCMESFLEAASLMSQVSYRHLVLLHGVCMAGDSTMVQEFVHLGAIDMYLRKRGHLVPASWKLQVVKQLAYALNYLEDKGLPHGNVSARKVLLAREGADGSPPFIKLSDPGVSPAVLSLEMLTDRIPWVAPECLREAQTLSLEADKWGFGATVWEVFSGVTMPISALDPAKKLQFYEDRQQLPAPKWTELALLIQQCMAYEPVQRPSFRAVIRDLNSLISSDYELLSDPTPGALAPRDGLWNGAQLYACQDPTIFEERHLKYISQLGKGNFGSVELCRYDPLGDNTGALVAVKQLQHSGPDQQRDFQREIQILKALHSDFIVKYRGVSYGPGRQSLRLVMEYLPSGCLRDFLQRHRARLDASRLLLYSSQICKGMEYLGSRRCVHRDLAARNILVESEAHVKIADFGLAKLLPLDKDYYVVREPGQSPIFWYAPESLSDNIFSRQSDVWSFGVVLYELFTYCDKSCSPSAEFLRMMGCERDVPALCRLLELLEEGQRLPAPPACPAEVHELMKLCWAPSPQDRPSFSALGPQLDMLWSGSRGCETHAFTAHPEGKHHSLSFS

## C=CC(=O)N1CC(COc2cc(-c3cc(Cl)c(O)c(OC)c3)cn3cncc23)C1 [Example 9, 1-(3-(((6-(3-chloro-4-hydroxy-5-methoxyphenyl)imidazo[1,5-a]pyridin-8-yl)oxy)methyl)azetidin-1-yl)prop-2-en-1-one]
JAK3
  Ki: 0.0001 to 0.001 µM
  JAK3 (pKi)-JAK1 (pKi): A (A represents a value of 3 or above)
Caco-2 cell monolayers
  Caco Kp 10^−6 cm/sec: A (A represents a value below 5×10^−6 cm/sec)
[1]
  IC50: < 1 µM
[2]
  IC50: 0.0316 to 0.2 µM
JAK2
  JAK 2 (pKi): E (E represents a pKi value of 7 or below (Ki of 100 nM or above))
Tyk2
  Tyk 2 (pKi): E (E represents a pKi value of 7 or below (Ki of 100 nM or above))
JAK1
  JAK 1 (pKi): E (E represents a pKi value of 7 or below (Ki of 100 nM or above))

## C=CC(=O)N1CC(COc2cc(-c3ccc(O)cc3)cn3cncc23)C1 [Example 11, 1-(3-(((6-(4-hydroxyphenyl)imidazo[1,5-a]pyridin-8-yl)oxy)methyl)azetidin-1-yl)prop-2-en-1-one]
JAK3
  Ki: 0.0001 to 0.001 µM
  JAK3 (pKi)-JAK1 (pKi): A (A represents a value of 3 or above)
Caco-2 cell monolayers
  Caco Kp 10^−6 cm/sec: A (A represents a value below 5×10^−6 cm/sec)
[1]
  IC50: < 1 µM
[2]
  IC50: 0.0316 to 0.2 µM
JAK2
  JAK 2 (pKi): E (E represents a pKi value of 7 or below (Ki of 100 nM or above))
Tyk2
  Tyk 2 (pKi): E (E represents a pKi value of 7 or below (Ki of 100 nM or above))
JAK1
  JAK 1 (pKi): E (E represents a pKi value of 7 or below (Ki of 100 nM or above))

## C=CC(=O)N1CC(COc2cc(-c3ccc(O)c(F)c3)cn3cncc23)C1 [Example 20]
JAK3
  Ki: 0.0001 to 0.001 µM
  JAK3 (pKi)-JAK1 (pKi): A (A represents a value of 3 or above)
Caco-2 cell monolayers
  Caco Kp 10^−6 cm/sec: A (A represents a value below 5×10^−6 cm/sec)
[1]
  IC50: < 1 µM
[2]
  IC50: 0.0316 to 0.2 µM
JAK2
  JAK 2 (pKi): E (E represents a pKi value of 7 or below (Ki of 100 nM or above))
Tyk2
  Tyk 2 (pKi): E (E represents a pKi value of 7 or below (Ki of 100 nM or above))
JAK1
  JAK 1 (pKi): E (E represents a pKi value of 7 or below (Ki of 100 nM or above))

## C=CC(=O)N1CC(C(C)(C)Oc2cc(-c3ccc(O)cc3)cn3cncc23)C1 [Example 28]
JAK3
  JAK 3 (pKi): A (A represents a pKi value≥10 (Ki≤0.1 nM))
  JAK3 (pKi)-JAK1 (pKi): A (A represents a value of 3 or above)
Caco-2 cell monolayers
  Caco Kp 10^−6 cm/sec: A (A represents a value below 5×10^−6 cm/sec)
[1]
  IC50: < 1 µM
[2]
  IC50: 0.0316 to 0.2 µM
JAK2
  JAK 2 (pKi): E (E represents a pKi value of 7 or below (Ki of 100 nM or above))
Tyk2
  Tyk 2 (pKi): E (E represents a pKi value of 7 or below (Ki of 100 nM or above))
JAK1
  JAK 1 (pKi): E (E represents a pKi value of 7 or below (Ki of 100 nM or above))

## C=CC(=O)N1CC(COc2cc(-c3cc(F)c(O)c(Cl)c3)cn3cncc23)C1 [Example 31]
JAK3
  JAK 3 (pKi): A (A represents a pKi value≥10 (Ki≤0.1 nM))
  JAK3 (pKi)-JAK1 (pKi): A (A represents a value of 3 or above)
Caco-2 cell monolayers
  Caco Kp 10^−6 cm/sec: A (A represents a value below 5×10^−6 cm/sec)
[1]
  IC50: < 1 µM
[2]
  IC50: 0.0316 to 0.2 µM
JAK2
  JAK 2 (pKi): E (E represents a pKi value of 7 or below (Ki of 100 nM or above))
Tyk2
  Tyk 2 (pKi): E (E represents a pKi value of 7 or below (Ki of 100 nM or above))
JAK1
  JAK 1 (pKi): E (E represents a pKi value of 7 or below (Ki of 100 nM or above))

## C=CC(=O)N1CC(COc2cc(-c3ccc(O)c(C)c3)cn3cncc23)C1 [Example 34]
JAK3
  Ki: 0.0001 to 0.001 µM
  JAK3 (pKi)-JAK1 (pKi): A (A represents a value of 3 or above)
Caco-2 cell monolayers
  Caco Kp 10^−6 cm/sec: B (B represents a value between 5×10^−6 and 10×10^−6 cm/sec)
[1]
  IC50: < 1 µM
[2]
  IC50: 0.0316 to 0.2 µM
JAK2
  JAK 2 (pKi): E (E represents a pKi value of 7 or below (Ki of 100 nM or above))
Tyk2
  Tyk 2 (pKi): E (E represents a pKi value of 7 or below (Ki of 100 nM or above))
JAK1
  JAK 1 (pKi): E (E represents a pKi value of 7 or below (Ki of 100 nM or above))

## C=CC(=O)N1C[C@H](Nc2ncnc3[nH]ccc23)CC[C@@H]1C [PF-06651600, 2-propen-1-one, 1-[(2S,5R)-2-methyl-5-(7H-pyrrolo[2,3-d]pyrimidin-4-ylamino)-1-piperidinyl], reference compound]
Caco-2 cell monolayers; A to B + Verapamil, unit not given, thresholds in same block in 10^−6 cm/sec
  Kp value: 25
[3]
  colon to plasma ratio: 2.8
